The nature of data set [1]: Toxicity in Artemia salina. Type of data set: organism-based. The note with it: in vivo.
Data set [2] can be described thus: Toxicity in Gambusia affinis. Type of data set: organism-based. The settings on record: in vivo.

Structures are written as SMILES. In brackets after ≈: the same amount, converted by molar mass.

For the molecule `CC(=O)O[C@H]1O[C@@H](C2=CC(=O)O[C@@H]2O)C[C@@H]2[C@@H]1CC[C@H]1[C@@]2(C)CC[C@H]2C(C)(C)CCC[C@]12C` [CAVERNOSOLIDE], the LC50 (usually the concentration lethal to half of the exposed cells or organisms) in data set [1] came to 0.37 µg/mL (≈ 0.803 µM); in data set [2] it was 0.75 µg/mL (≈ 1.63 µM).

Values taken from ChEMBL document CHEMBL1146448, “Cavernosolide, a New Sesterterpene from a Tyrrhenian Sponge” (J Nat Prod, 1997).
